In paper PMC9926234, “Iterative computational design and crystallographic screening identifies potent inhibitors targeting the Nsp3 macrodomain of SARS-CoV-2” (Proceedings of the National Academy of Sciences of the …, 2023):

molecular target: T1, SARS-CoV-2 NSP3 Mac1 (Severe acute respiratory syndrome coronavirus 2, UniProt P0DTD1); format: binding; conditions: overall hit flag: binding in crystallographic soaking or the HTRF-based binding assay

Row | SMILES | HIT*
1 | c1csc(CC2CCN(c3ncnc4[nH]ccc34)C2)n1 (stereo not drawn) [Z6891] | Y
2 | Cc1oc(=O)oc1CSc1ncnc2[nH]cnc12 [Z7450] | Y
3 | OCc1cn(C2CCCN(c3ncnc4[nH]ccc34)C2)nn1 (stereo not drawn) [Z7864] | Y
4 | Cc1nc(Cn2cnc3c(N)nc(N)nc32)cs1 [Z8569] | Y
5 | Nc1nc(N)c2ncn(Cc3csc(Cl)n3)c2n1 [Z8572] | Y
6 | Nc1nc(N)c2ncn(Cc3csc(C4CC4)n3)c2n1 [Z8585] | Y
7 | O=C1CCCN1CCSc1ncnc2[nH]cnc12 [Z9920] | Y

molecular target: T1, SARS-CoV-2 NSP3 Mac1; format: binding; set-up: contains a conserved macrodomain enzyme (Mac1); conditions: DSF dose responsiveness, 1 µM nsp3 mac1; adj p given
Method: DSF and associated compound handling was performed as described ([12]), with 5 µM dye “Fluorescent Yellow” (Jacquard iDye Cat #JID1405) used in place of SYPRO Orange. Compounds were tested in triplicate, at seven concentrations in two-fold serial dilutions, at a top concentration of either 1,000 or 100 μM. To minimize experimental noise arising from plate location-based effects on Tma, all concentrations and replicates for each compound were tested within a single region of the microtiter plates, including a DMSO-only control from which ΔTmas were calculated for that compound. […] For each compound, to determine statistical significance of the dose responsive thermal shift, the Spearman’s coefficient was calculated between compound concentration and ΔTma.

Row | SMILES | Spearman est (compound concentration vs apparent Tm)
8 | Clc1cc2c(N3CCCC(c4nnc[nH]4)C3)ncnc2[nH]1 (stereo not drawn) [ZINC001187497156] | 0.32
9 | CNS(=O)(=O)c1cccc(-c2ncnc3[nH]c4ccccc4c23)c1 [ZINC001240776402] | −0.29
10 | O=C1CCCN1Cc1cccc(N2C(=O)N[C@@H](CO)C2=O)c1 [ZINC001320848619] | 0.18
11 | O=C(c1ncnc2[nH]ccc12)N1CC(n2cncn2)C1 [ZINC001327823432] | 0.54
12 | O=C(c1ncnc2[nH]ccc12)N1CC(n2ccnn2)C1 [ZINC001335091110] | −0.36
13 | CN(Cc1ncc(Cl)n1C)c1ncnc(N)n1 [ZINC001337833291] | 0.82
14 | CN(Cc1nnc2c(=O)[nH]ccn12)C(=O)COC1CC1 [ZINC001364630288] | 0.73
15 | Nc1ncc(S(=O)(=O)N2CCC2c2cccc(F)c2)cn1 (stereo not drawn) [ZINC001365141527] | −0.66
16 | CC(C(=O)N1CC(C(N)=O)C1)n1cnc2c(N)ncnc21 (stereo not drawn) [ZINC001434309614] | 0.08
17 | O=c1[nH]ccn2c(CSc3nc4ccccc4s3)nnc12 [ZINC001458791015] | 0.66
18 | O=c1[nH]nc(C2CCCN(c3ncnc4[nH]c(Cl)cc34)C2)o1 (stereo not drawn) [ZINC001559178387] | −0.22
19 | Nc1ncnc(SCCc2cccc(Cl)c2Cl)n1 [ZINC001641481086] | 0.6
20 | Cc1cc(C)nc(CSc2nnc3c(=O)[nH]c4ccccc4n23)c1 [ZINC001652467570] | 0.44

same assay, conditions: maximal thermal upshift

Row | SMILES | DSF max dTma
21 | CNS(=O)(=O)c1cccc(-c2ncnc3[nH]c4ccccc4c23)c1 [ZINC001240776402] | 0.27 ˚C
22 | O=C1CCCN1Cc1cccc(N2C(=O)N[C@@H](CO)C2=O)c1 [ZINC001320848619] | 0.2 ˚C
23 | O=C(c1ncnc2[nH]ccc12)N1CC(n2cncn2)C1 [ZINC001327823432] | 0.66 ˚C
24 | O=C(c1ncnc2[nH]ccc12)N1CC(n2ccnn2)C1 [ZINC001335091110] | 0.04 ˚C
25 | Nc1ncc(S(=O)(=O)N2CCC2c2cccc(F)c2)cn1 (stereo not drawn) [ZINC001365141527] | 0 ˚C
26 | CC(C(=O)N1CC(C(N)=O)C1)n1cnc2c(N)ncnc21 (stereo not drawn) [ZINC001434309614] | 0.26 ˚C

same assay, conditions: maximal thermal upshift vs DMSO control

Row | SMILES | DSF max dTma [°C]
27 | c1csc(CC2CCN(c3ncnc4[nH]ccc34)C2)n1 (stereo not drawn) [Z6891] | 0.15
28 | Cc1oc(=O)oc1CSc1ncnc2[nH]cnc12 [Z7450] | 0.49
29 | OCc1cn(C2CCCN(c3ncnc4[nH]ccc34)C2)nn1 (stereo not drawn) [Z7864] | 0.32
30 | Cc1nc(Cn2cnc3c(N)nc(N)nc32)cs1 [Z8569] | 0.53
31 | Nc1nc(N)c2ncn(Cc3csc(Cl)n3)c2n1 [Z8572] | 1.1
32 | Nc1nc(N)c2ncn(Cc3csc(C4CC4)n3)c2n1 [Z8585] | 1.3
33 | O=C1CCCN1CCSc1ncnc2[nH]cnc12 [Z9920] | 0.95
